# Experimental data as given in patent publication US8097774B2, “Cytochrome P450 genes conferring herbicide resistance” (Syngenta Participations AG, priority 2007, dated 2012).
# Read-outs that look alike come from different tables or passages of the source.
# Columns and labels:
# [1] = tested on: Transgenic progeny plants (T1 or later generations) containing the nsf transgene (vector 17108); test: T1 seed from 17108 events, spray with other HPPD herbicides; details: sprayed at 40-80 g/ha rates or higher; evaluated for bleaching and chlorosis
# Method: T0 transformants containing the nsf transgene (vector 17108) are allowed to set T1 seed, and the seed is harvested. This seed is planted, and the progeny analyzed to identify seedlots that are derived from germline transformed plants. Transgenic progeny plants (T1 or later generations), are analyzed to confirm mesotrione tolerance. […] Plants are evaluated for bleaching, and chlorosis, as described in Example 7.
# corn CYP72A1 enzyme = details: U.S. Pat. No. 6,380,465, cited from earlier work
# rice CYP81A6 enzyme = details: Pan et al. (2007); cited from earlier work
# [2] = tested on: CYP76B1 gene in tobacco (Nicotiana tabacum) and Arabidopsis; details: cited from earlier work
# [3] = tested on: T0 transformants with vector 17107 (corn CYP72A1 cytochrome P450 gene); test: Mesotrione spray on soybean T0 plants, chlorosis rating; assay type: in vivo, Soybean (Glycine max); details: 17107 positive, 52.5 g/ha mesotrione, 22 days after the spray
# Excerpt: A binary vector (17107) for dicot (soybean) transformation was constructed, with the Arabidopsis UBQ3 promoter driving the corn CYP72A1 cytochrome P450 gene, followed by NOS terminator (FIG. 3). The gene was codon optimized for soybean expression based upon the predicted amino acid sequence of the maize gene coding region. The amino acid sequence of the protein encoded by the CYP72A1 gene is provided in SEQ ID NO:3, and the nucleotide sequence of the optimized CYP72A1 gene in this binary transformation vector is provided in SEQ ID NO:4. The transformation vector also contains two PAT gene cassettes (one with the 35S promoter and one with the CMP promoter, and both PAT genes are followed by the nos terminator) for glufosinate based selection during the transformation process.
# (§1) T0 plants were taken from tissue culture to the greenhouse where they are transplanted into saturated soil (Redi-Earth® Plug and Seedling Mix, Sun Gro Horticulture, Bellevue, Wash.) mixed with 1% granular Marathon® (Olympic Horticultural Products, Co., Mainland, Pa.) at 5-10 g/gal Redi-Earth® Mix in 2″ square pots. The plants were covered with humidity domes and placed in a Conviron chamber (Pembina, N. Dak.) with the following environmental conditions: 24° C. day; 18° C. night; 23 hr photoperiod; 80% relative humidity.
# (§2) After plants became established in the soil and new growth appeared (˜1-2 weeks), plants were sampled and tested for the presence of desired transgene by Taqman® analysis using probes for P450 (CYP72A1), or promoters (prCMP and prUBq3). All positive plants and several negative plants were transplanted into 4″ square pots containing MetroMix® 380 soil (Sun Gro Horticulture, Bellevue, Wash.). Sierra 17-6-12 slow release fertilizer was incorporated into the soil at the recommended rate. The negative plants serve as controls for the spray experiment. The plants were then relocated into a standard greenhouse to acclimatize (˜1 week). The environmental conditions were: 27° C. day; 21° C. night; 12 hr photoperiod (with ambient light); ambient humidity. After acclimatizing (˜1 week), the plants were ready to be sprayed with the desired herbicides.
# (§3) The plants from Example 6 were sprayed with mesotrione to determine if they were tolerant to this herbicide. Callisto® (active ingredient mesotrione, Syngenta Crop Protection, Inc., Greensboro, N.C.) was mixed in water and X-77 surfactant (0.25% v/v final concentration). Plants were placed in a DeVries spray chamber (DeVries Manufacturing, Hollandale, Minn.), and the distance from the nozzle to the top of the plants was adjusted to approximately 12 inches. The system was set up so that the boom moved at 2 mph, and delivered 25 gallon fluid per acre. The spray rate was calibrated to spray 52.5 g/ha mesotrione over the top of the plants. Negative T0 transformants (i.e., negative by Taqman® for presence of transgenes), T0 transformants with vector 17107, and one transformant with vector 17108 (event 17108-A), were sprayed in this manner. After spraying, plants were placed in the greenhouse, under the same conditions as described in Example 3 above, and evaluated frequently for symptoms. […] However, over time, leaves greened up on all plants. New growth developed as partially bleached, or chlorotic, and the leaves that initially were bleached also greened up. […] At 22 days after the spray, the plants were rated for symptoms on the leaves that were initially bleached. Visible chlorosis was only seen on the leaves immediately above the leaves that were exposed during the spray (i.e., the leaves that had necrotic spots), and in some events, on leaves in sideshoots. The partial chlorosis was evident as light green patches, and often as light green (almost yellow) edges on the leaves.
# [4] = tested on: Negative T0 transformants (negative by Taqman for presence of transgenes); test: as above; assay type: in vivo, Soybean (Glycine max); details: 52.5 g/ha mesotrione, 22 days after the spray
# Method: as §1, §2
# as §3, with “Visible chlorosis was only seen on the leaves immediately above the leaves that were exposed during the spray (i.e., the leaves that had necrotic spots), and in some events, on leaves in sideshoots. The partial chlorosis was evident as light green patches, and often as light green (almost yellow) edges on the leaves.” left out
# [5] = tested on: untransformed explants (wild-type tobacco); test: Tobacco explants on MS agar containing mesotrione; assay type: in vivo; details: 0.02 ppm mesotrione in MS agar (+3% sucrose); no recovery following prolonged exposure
# Excerpt: (§4) To determine tolerance of P450 transgenic explants (i.e. a leaf plus short segment of stem containing the auxiliary bud), these are placed into MS agar (+3% sucrose) containing various concentrations of mesotrione, from 0.02 to 2 ppm. […] In these particular experiments, only the shoot that develops from the bud is bleached, the leaf on the explanted tissue remains green.
# [6] = tested on: All plants that were sprayed (negative T0 transformants, vector 17107, event 17108-A); test: Mesotrione spray on soybean T0 plants, early symptoms on all sprayed plants; assay type: in vivo, Soybean (Glycine max); details: 52.5 g/ha mesotrione over the top
# Method: as §1
# as §2, with “The negative plants serve as controls for the spray experiment. The plants were then relocated into a standard greenhouse to acclimatize (˜1 week). The environmental conditions were: 27° C. day; 21° C. night; 12 hr photoperiod (with ambient light); ambient humidity.” left out
# The plants from Example 6 were sprayed with mesotrione to determine if they were tolerant to this herbicide. […] After spraying, plants were placed in the greenhouse, under the same conditions as described in Example 3 above, and evaluated frequently for symptoms. […]
# [7] = tested on: P450 transgenic explants (transgene PCR+ve transformed plants); test: Tobacco explants on MS agar containing mesotrione; assay type: in vivo
# Excerpt: Plant transformation vectors with the appropriate P450 gene expression cassette are used to transform Agrobacterium tumefaciens LBA4404. Tobacco tissue is subjected to Agrobacterium-mediated transformation using methods well described in the art. Transformed shoots are regenerated from callus resistant to the selection agent (e.g., glufosinate, butafenacil, kanamycin). Shoots are rooted on MS agar containing the selection agent.
# as §4
# They root normally and are phenotypically indistinguishable from untransformed plants. A sub-set of the transformants is tolerant to concentrations of >0.1 ppm yielding plants looking normal and rooting well in the presence of herbicide. Some of the transformed plants can be initially bleached when subjected to the herbicide at the said higher concentrations, but on prolonged exposure they progressively “green up” and “recover”. […]
# [8] = tested on: transformant with vector 17108 (event 17108-A, nsf P450 gene); test: Mesotrione spray on soybean T0 plants, chlorosis rating; assay type: in vivo, Soybean (Glycine max); details: 52.5 g/ha mesotrione
# Excerpt: A similar binary vector (17108) was constructed with the corn cytochrome P450 gene ‘nsf’ instead of the CYP72A1 gene (FIG. 4). The nsf gene in this vector was codon optimized for soybean expression (SEQ ID NO:2) based upon the predicted amino acid sequence of the maize gene coding region (SEQ ID NO:1).
# as §1, §2
# The plants from Example 6 were sprayed with mesotrione to determine if they were tolerant to this herbicide. Callisto® (active ingredient mesotrione, Syngenta Crop Protection, Inc., Greensboro, N.C.) was mixed in water and X-77 surfactant (0.25% v/v final concentration). Plants were placed in a DeVries spray chamber (DeVries Manufacturing, Hollandale, Minn.), and the distance from the nozzle to the top of the plants was adjusted to approximately 12 inches. The system was set up so that the boom moved at 2 mph, and delivered 25 gallon fluid per acre. The spray rate was calibrated to spray 52.5 g/ha mesotrione over the top of the plants. Negative T0 transformants (i.e., negative by Taqman® for presence of transgenes), T0 transformants with vector 17107, and one transformant with vector 17108 (event 17108-A), were sprayed in this manner. After spraying, plants were placed in the greenhouse, under the same conditions as described in Example 3 above, and evaluated frequently for symptoms. […] However, over time, leaves greened up on all plants. […]
# corn plants = test: Mesotrione levels in treated corn plants; assay type: in vivo; details: over time; P450 based degradation mechanism
# [9] = heterologous expression of CYP76B1, Didierjean et al. (2002)
# [10] = event 17108-A, 17108 positive, 22 days after the spray
smiles,measurement,setting,value
CS(=O)(=O)c1ccc(C(=O)C2=C(Sc3ccccc3)C3CCC(C3)C2=O)c(Cl)c1 (stereo not shown) [Benzobicyclon],tolerance when sprayed,[1],display tolerance
Cc1ccc(C(=O)COc2c(C(=O)c3ccc(Cl)c(C)c3Cl)c(C)nn2C)cc1 [Benzofenap],tolerance when sprayed,[1],display tolerance
CS(=O)(=O)c1cc(Cl)ccc1C(=O)c1cnoc1C1CC1 [Isoxachlortole],tolerance when sprayed,[1],display tolerance
Cc1nn(C)c(O)c1C(=O)c1ccc(C(F)(F)F)cc1S(C)(=O)=O [Pyrasulfatole],tolerance when sprayed,[1],display tolerance
CS(=O)(=O)c1ccc(C(=O)C2C(=O)CCCC2=O)c(Cl)c1 [Sulcotrione],tolerance when sprayed,[1],display tolerance
Cc1c(C(=O)c2cnn(C)c2O)ccc(S(C)(=O)=O)c1C1=NOCC1 [Topramezone],tolerance when sprayed,[1],display tolerance
CC(C)N1C(=O)c2ccccc2NS1(=O)=O [bentazon],ability of the enzyme to degrade the herbicide,corn CYP72A1 enzyme,degrade
same,ability of the enzyme to degrade the herbicide,rice CYP81A6 enzyme,able to degrade
COc1cc(Cl)nc(NC(=O)NS(=O)(=O)c2ccccc2C(=O)O)n1 [chlorimuron],ability of the enzyme to degrade the herbicide,corn CYP72A1 enzyme,degrade
Cc1ccc(NC(=O)N(C)C)cc1Cl [chlortoluron],ability of the enzyme to degrade the herbicide,corn CYP72A1 enzyme,degrade
same,increase in tolerance,[2]; [9],10 fold
CC(C)c1ccc(NC(=O)N(C)C)cc1 [isoproturon],increase in tolerance,[2]; in vivo,10 fold
CON(C)C(=O)Nc1ccc(Cl)c(Cl)c1 [linuron],level of tolerance,[2]; [9],20 fold
CCOC(=O)CC(SP(=S)(OC)OC)C(=O)OCC (stereo not shown) [malathion],ability of these plants to degrade the insecticide,corn CYP72A1 enzyme; plants,able to degrade
CS(=O)(=O)c1ccc(C(=O)C2C(=O)CCCC2=O)c([N+](=O)[O-])c1 [mesotrione],Number of leaves with <50% chlorisis,[3]; event 17107-A,0
same,Number of leaves with ≧50% chlorosis,[3]; event 17107-A,2
same,Number of leaves with <50% chlorisis,[3]; event 17107-B,2
same,Number of leaves with ≧50% chlorosis,[3]; event 17107-B,2
same,Number of leaves with <50% chlorisis,[3]; event 17107-C,1
same,Number of leaves with ≧50% chlorosis,[3]; event 17107-C,1
same,Number of leaves with <50% chlorisis,[3]; event 17107-D,2
same,Number of leaves with ≧50% chlorosis,[3]; event 17107-D,3
same,Number of leaves with <50% chlorisis,[3]; event 17107-E,1
same,Number of leaves with ≧50% chlorosis,[3]; event 17107-E,2
same,Number of leaves with <50% chlorisis,[3]; event 17107-F,2
same,Number of leaves with ≧50% chlorosis,[3]; event 17107-F,1
same,Number of leaves with <50% chlorisis,[3]; event 17107-G,2
same,Number of leaves with ≧50% chlorosis,[3]; event 17107-G,1
same,Number of leaves with <50% chlorisis,[3]; event 17107-H,4
same,Number of leaves with ≧50% chlorosis,[3]; event 17107-H,2
same,Number of leaves with <50% chlorisis,[3]; event 17107-I,1
same,Number of leaves with ≧50% chlorosis,[3]; event 17107-I,1
same,Number of leaves with <50% chlorisis,"[4]; event 6D032-A #4, Negative",1
same,Number of leaves with ≧50% chlorosis,"[4]; event 6D032-A #4, Negative",1
same,Number of leaves with <50% chlorisis,"[4]; event 6D032-A #14, Negative",0
same,Number of leaves with ≧50% chlorosis,"[4]; event 6D032-A #14, Negative",2
same,bleaching of explants,[5],fully bleached
same,symptoms on leaves exposed at the time of herbicide application,[6],developed necrotic symptoms on small portions of the leaves
same,bleaching of new growth that emerged from the plants,[6]; leaves greened up over time,completely bleached
same,bleaching at the level which causes symptoms on wild-type tobacco,[7]; a number of the transgene PCR+ve transformed plants,no indication of bleaching
same,"concentration tolerated, plants looking normal and rooting well","[7]; a sub-set of the transformants, mesotrione in MS agar",> 0.1 ppm
same,recovery from the mesotrione injury,[8]; event 17108-A only,fully recover
same,Number of leaves with <50% chlorisis,[8]; [10],0
same,Number of leaves with ≧50% chlorosis,[8]; [10],0
same,greening of bleached leaves compared with events with vector 17107,"[8]; event 17108-A, 1 week after spray",turned green faster
same,mesotrione levels in treated corn plants,corn plants,decrease over time
